Drawing on patent US20250082633A1, “COMPOUNDS AND METHODS FOR MODULATING SPLICING” (REMIX THERAPEUTICS INC., priority 2021, published 2025), this text covers IC50 for 26 compounds.

Assay [1] concerns HiBiT-tagged HTT protein in K562 cells. The assay can be described thus: HiBit protein abundance assay, HTT. The format is cell-based, human. The conditions noted are these: K562 HiBiT-modified cells, 24 hours, luminescence. Here is the method:
(§1) Compounds described herein were used to screen for effects on quantitative protein abundance using a HiBit assay system (Promega). Quantitative protein abundance was determined by measuring the protein levels of HiBit-tagged protein targets expressed in cell culture via luminescence using the Nano-Glo HiBiT Lytic Detection System, which uses a split complementation assay format to reconstitute NanoBiT enzyme to generate a luminescent signal. A protein abundance assay was developed such that endogenous protein targets could be modified with the HiBiT peptide tag and their abundance could be assessed after compound treatment. Briefly, K562 cell lines containing a HiBiT-modification were treated with various compounds described herein (e.g., compounds of Formulas (I), (II), or (III)). After treatment for 24 hours, the protein abundance of a specific target was determined by measuring luminescence. • Promega Nano-Glo HiBiT Lytic Detection System (cat #N3030) • Corning 384-well TC-treated microplates (cat #3570) • Synthego Engineered Cells Knock-In Clones [table] Cells were maintained in IMDM with 10% FBS. Before the assay, cells were diluted with phenolphthalein-free growth media (IMDM+1% FBS media) and were seeded in a 384-well plate at a density of 10000 cells/well (for each cell line listed in Table 6). Each compound was prepared as a 10-point 3-fold serial dilution in DMSO with the top dose at a final concentration of 10 μM in the well. Unmodified K562 cells were added at the previously specified density with DMSO to serve as an assay baseline and positive control (PC) and DMSO only with the respective modified cell lines was added to the negative control (NC) columns. Final DMSO concentration was kept at or below 0.25%. Treated cell plates were placed in an incubator at 37° C. with 5% CO2 for 24 hours. After 24 hours, 25 μL of Complete HiBit Lytic reagent was added to each well at room temperature (e.g. one plate requiring 10 mL Lytic Buffer, 100 μL LgBiT Protein, 200 μL Lytic Substrate), shaken for 5 minutes at 600 RPM, then left to sit for 10 minutes for signal to stabilize before reading on a Spark Cyto plate reader (Tecan) with a 500 ms measurement time. To determine compound effects on protein abundance of each target in Table 6, the percent response for each respective cell line was calculated at each compound concentration as follows: For the normalized response at each concentration, a four-parameter logistical regression was fit to the data and the response was interpolated at the 50% value to determine a concentration for protein abundance at 50% (IC50) the untreated control.
(In general: The HiBiT peptide binds its large partner to form an active luciferase.)

Assay [2] deals with HiBiT-tagged MYB protein in K562 cells. The assay can be described thus: HiBit protein abundance assay, MYB. The class given is cell-based, human. The conditions noted are these: K562 HiBiT-modified cells, 24 hours, luminescence. As for the experimental part: as §1
A further assay deals with Target C. The assay can be described thus: RT-qPCR splicing assay, gene panel, Target C canonical junction (CJ) mRNA. The class given is cell-based. Conditions: Homo sapiens; decrease in CJ mRNA levels; larger panel of genes; Table 3; read-out: Target C CJ IC50. Put shortly: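 A673 (DMEM/10% FBS) or K562 (IMDM/10% FBS) cells were treated 24 h at 37 °C with an 11-point 3-fold dilution series, top final 10 uM, DMSO ≤0.25%. Lysates underwent one-step RT-qPCR for the canonical-junction isoform with GAPDH, GUSB or PPIA as housekeeper. ΔΔCt versus DMSO was converted to RQ (2^−ΔΔCt), then to percent response.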

Counter-ions that a name gives are not always drawn.

As usually defined, the IC50 is the concentration that inhibits the measured activity by half. Regarding `Cc1cn2nc(-c3cc(F)c4nn(C5CCN(CC6CC6)C6(CC6)C5)cc4c3)cc(C)c2n1` (stereo not drawn) [Compound 183, 6-[2-[4-(cyclopropylmethyl)-4-azaspiro[2.5]octan-7-yl]-7-fluoro-indazol-5-yl]-2,8-dimethyl-imidazo[1,2-b]pyridazine], the figures for the IC50 (in assay [1]; in assay [2]; with Target C) were less than 100 nM, 100 to 1000 nM and less than 100 nM, respectively.

Regarding `Cc1cn2nc(-c3cc(F)c4nn(C5CCN(C)C6(CC6)C5)cc4c3)cc(C)c2n1` (stereo not drawn) [Compound 174, 6-[7-fluoro-2-(4-methyl-4-azaspiro[2.5]octan-7-yl)indazol-5-yl]-2,8-dimethyl-imidazo[1,2-b]pyridazine], the IC50 is less than 100 nM in assay [1], 100 to 1000 nM in assay [2] and less than 100 nM in the assay with Target C.

Take `Cc1cc(-n2cc3cc(C4CCNCC4)cc(F)c3n2)cc2cn(C)nc12` [Compound 115, 2-(2,7-dimethylindazol-5-yl)-7-fluoro-5-(4-piperidyl)indazole]: the IC50 (in assay [1]; in assay [2]; in the assay with Target C) was 1000 to 10000 nM in each case.

As to `Cc1nc2ccc(-c3cc(F)c4nn(C5CCNCC5)cc4c3)cc2s1` [Compound 134, 6-(7-fluoro-2-(piperidin-4-yl)-2H-indazol-5-yl)-2-methylbenzo[d]thiazole], the IC50 in assay [1] is 1000 to 10000 nM; in assay [2], 1000 to 10000 nM; with Target C, more than 10000 nM.

Take `Cc1nc2c(C)c(O)c(-c3cc(F)c4nn(C5CCNCC5)cc4c3)cc2o1` [Compound 123, 6-[7-fluoro-2-(4-piperidyl)indazol-5-yl]-2,4-dimethyl-1,3-benzoxazol-5-ol]: the IC50 in assay [1] is 100 to 1000 nM; in assay [2] it was 1000 to 10000 nM; in the assay on Target C, 1000 to 10000 nM.

Turning to `Cc1cn2cc(-c3cc(F)c4nn(C5CCNCC5)cc4c3)cc(Cl)c2n1` [Compound 127, 5-(8-chloro-2-methylimidazo[1,2-a]pyridin-6-yl)-7-fluoro-2-(piperidin-4-yl)-2H-indazole hydrochloride salt], the results for the IC50 (in assay [1]; in assay [2]; in the assay on Target C) were less than 100 nM, 100 to 1000 nM and 100 to 1000 nM, respectively.

Regarding `Cc1nc2c(C)cc(-n3cc4cc(N5CCNCC5)cc(F)c4n3)cc2o1` [Compound 119, 6-(7-fluoro-5-piperazin-1-yl-indazol-2-yl)-2,4-dimethyl-1,3-benzoxazole], the half-maximal inhibitory concentration (IC50) in assay [1] was more than 10000 nM; in assay [2], 1000 to 10000 nM; with Target C it was more than 10000 nM.

Turning to `Cc1nc2c(F)cc(-c3cc(F)c4nn(C5CCNCC5)cc4c3)cc2o1` [Compound 136, 4-fluoro-6-[7-fluoro-2-(4-piperidyl)indazol-5-yl]-2-methyl-1,3-benzoxazole], the half-maximal inhibitory concentration (IC50) in assay [1] is less than 100 nM; in assay [2], 100 to 1000 nM; in the assay on Target C, 100 to 1000 nM.

Regarding `Cc1cn2nc(-c3cc4cn(C5CCNCC5)nc4c(O)n3)cc(C)c2n1` [Compound 139, 5-(2,8-dimethylimidazo[1,2-b]pyridazin-6-yl)-2-(4-piperidyl)-6H-pyrazolo[3,4-c]pyridin-7-one], the IC50 (in assay [1]; in assay [2]; in the assay with Target C) was 100 to 1000 nM in each case.

Turning to `Cn1cc2cc(-c3cc(F)c4nn(C5CCNCC5)cc4c3)cc(C#N)c2n1` [Compound 130, 5-[7-fluoro-2-(4-piperidyl)indazol-5-yl]-2-methyl-indazole-7-carbonitrile], the IC50 in assay [1] is less than 100 nM; in assay [2] it was 100 to 1000 nM; in the assay with Target C, 100 to 1000 nM.

As for `COc1cc(-c2cc(C)c3nc(C)cn3n2)cc2cn(C3CCNCC3)nc12` [Compound 155, 6-(7-methoxy-2-(piperidin-4-yl)-2H-indazol-5-yl)-2,8-dimethylimidazo [1,2-b]pyridazine], the IC50 is less than 100 nM in assay [1], 100 to 1000 nM in assay [2] and 100 to 1000 nM in the assay on Target C.

As to `Cc1ccc2cc(-c3cc(F)c4nn(C5CCNCC5)cc4c3)ccc2n1` [Compound 163, 6-[7-fluoro-2-(4-piperidyl)indazol-5-yl]-2-methyl-quinoline], the IC50 in assay [1] was 1000 to 10000 nM; in assay [2] it was 1000 to 10000 nM; with Target C, more than 10000 nM.

In the case of `Cc1cn2cc(-c3cc(F)c4nn(C5CCNCC5)cc4c3)nc(C)c2n1` [Compound 132, 6-[7-fluoro-2-(4-piperidyl)indazol-5-yl]-2,8-dimethyl-imidazo[1,2-a]pyrazine], the IC50 in assay [1] is 100 to 1000 nM; in assay [2], 1000 to 10000 nM; in the assay on Target C it was 1000 to 10000 nM.

Take `Cn1cc2cc(-c3ccc4cn(C5CCNCC5)nc4c3)cc(F)c2n1` [Compound 148, 7-fluoro-2-methyl-5-[2-(4-piperidyl)indazol-6-yl]indazole]: the IC50 was 1000 to 10000 nM in assay [1], more than 10000 nM in assay [2] and more than 10000 nM with Target C.

Consider `Fc1cc(-c2ccc3ccncc3c2)cc2cn(C3CCNCC3)nc12` [Compound 158, 7-[7-fluoro-2-(4-piperidyl)indazol-5-yl]isoquinoline], for which the concentration for half-maximal inhibition (IC50) in assay [1] is 1000 to 10000 nM; in assay [2], 1000 to 10000 nM; in the assay with Target C, more than 10000 nM.

For `Cc1cn2nc(-c3cc(F)c4nn(C5CCN(CCF)CC5)cc4c3)cc(C)c2n1` [Compound 152], the IC50 in assay [1] is less than 100 nM; in assay [2], 100 to 1000 nM; in the assay on Target C it was 100 to 1000 nM.

Take `COC1=C(C)C2N=C(C)OC2C=C1c1cc(F)c2nn(C3CCNCC3)cc2n1` (stereo not drawn) [Compound 144]: the IC50 in assay [1] is 1000 to 10000 nM; in assay [2], 1000 to 10000 nM; with Target C it was more than 10000 nM.

Turning to `Cc1ncc2cc(-c3cc(F)c4nn(C5CCNCC5)cc4c3)ccc2n1` [Compound 165, 6-[7-fluoro-2-(4-piperidyl)indazol-5-yl]-2-methyl-quinazoline], the IC50 (in assay [1]; in assay [2]; in the assay on Target C) was more than 10000 nM each time.

With `Cc1cn2nc(-c3cc(F)c4nn(C5CCN(CC6CC6)CC5)cc4c3)cc(C)c2n1` [Compound 149, 6-[2-[1-(cyclopropylmethyl)-4-piperidyl]-7-fluoro-indazol-5-yl]-2,8-dimethyl-imidazo[1,2-b]pyridazine], the IC50 in assay [1] is less than 100 nM; in assay [2], 100 to 1000 nM; in the assay on Target C it was less than 100 nM.

With `Cn1cc2cc(-c3ccc4nn(C5CCNCC5)cc4n3)c(O)cc2n1` [Compound 110, 2-methyl-5-[2-(4-piperidyl)pyrazolo[4,3-b]pyridin-5-yl]indazol-6-ol], the 50% inhibitory concentration (IC50) in assay [1] fell in the range of 100 to 1000 nM; in assay [2], 100 to 1000 nM; in the assay with Target C, 1000 to 10000 nM.

In the case of `COc1cc2nn(C3CCNCC3)cc2cc1-c1cc(C)c2nc(C)cn2n1` [Compound 159, 6-(6-methoxy-2-(piperidin-4-yl)-2H-indazol-5-yl)-2,8-dimethylimidazo[1,2-b]pyridazine], the IC50 (in assay [1]; in assay [2]; with Target C) was more than 10000 nM in each case.

Regarding `Fc1cc(-c2ccc3ncccc3c2)cc2cn(C3CCNCC3)nc12` [Compound 162, 6-[7-fluoro-2-(4-piperidyl)indazol-5-yl]quinoline], the IC50 in assay [1] was 1000 to 10000 nM; in assay [2], 1000 to 10000 nM; with Target C, more than 10000 nM.

On to `Cn1cc2cc(-c3cc(F)c4nn(C5CCNCC5)cc4c3)ccc2n1` [Compound 145, 7-fluoro-5-(2-methylindazol-5-yl)-2-(4-piperidyl)indazole], for which the IC50 (in assay [1]; in assay [2]; in the assay on Target C) was 100 to 1000 nM in each case.

Consider `Cc1cn2nc(-c3cc(F)c4nn([C@@H]5CCNC6(CC6)C5)cc4c3)cc(C)c2n1` [Compound 173], for which the IC50 is less than 100 nM in assay [1], 100 to 1000 nM in assay [2] and 100 to 1000 nM with Target C.

Take `Cc1cn2nc(-c3cc(F)c4nn(C5CCNCC5)cc4c3)cc2c(C)n1` [Compound 124, 2-[7-fluoro-2-(4-piperidyl)indazol-5-yl]-4,6-dimethyl-pyrazolo[1,5-a]pyrazine]: the IC50 in assay [1] is less than 100 nM; in assay [2] it was 100 to 1000 nM; with Target C, 100 to 1000 nM.

As to `Cc1nc2ccc(-c3cc(F)c4nn(C5CCNCC5)cc4c3)cc2o1` [Compound 135, 6-[7-fluoro-2-(4-piperidyl)indazol-5-yl]-2-methyl-1,3-benzoxazole], the IC50 in assay [1] is less than 100 nM; in assay [2], 100 to 1000 nM; in the assay on Target C, 100 to 1000 nM.
